Assay results from US10562890B2, “Cancer therapeutics” (UNIVERSITY OF VIRGINIA PATENT FOUNDATION, priority 2014, dated 2020).

Assays:
[1] = target: binding of CBFβ to RUNX1 in SEM cells (Homo sapiens (Human), UniProt Q13951); assay: Co-immunoprecipitation of CBFβ with RUNX1 in SEM cells; assay type: cell-based; conditions: 10 μM, 6 hours
Protocol: To test whether the wild-type CBFβ Inhibitors can disrupt the binding of CBFβ to RUNX1 in cells, co-immunoprecipitation experiments were performed in the SEM cell line. Co-immunoprecipitation assays of lysates from […] SEM cells were treated with Al-4-88^1, Al-10-47, Al-10-104, Al-12-126 and Al-14-91 at 10 μM for 6 hours. RUNX1-bound CBFβ protein levels and immunoprecipitated RUNX1 are shown on the top panel of FIG. 2A. Quantification of RUNX1 bound CBFβ is shown on the bottom graph.

[2] = tested on: BEAS-2B normal lung cells; assay: MTT growth assay, BEAS-2B cells; assay type: cell-based; conditions: 10 μM, 72 hrs
Protocol: (§1) Activity of Al-10-104 was tested using several lung cancer cell lines and one immortalized, non-transformed lung cell line. […] Data for the squamous cell carcinoma of the lung cell line H520 and the immortalized normal lung epithelial cell line BEAS-2B are shown in FIG. 10.
(§2) H520 cells were cultured in RPMI 1640 medium, supplemented with fetal bovine serum (10% final concentration), Hepes (1%), and sodium priruvate (1%). The MTT assay used 4×10^5/ml cells. BEAS-2B cells were cultured in DMEM medium with fetal bovine serum (10% final concentration). The MTT assay for the BEAS-2B cell line was performed using 3.5×10^5/ml cells.
(§3) Al-4-88 had no effect on either cell line.

[3] = Sedative effects and tolerability in mice after IP administration; assay type: in vivo; conditions: intraperitoneal (IP) injection
Source text: “NA” indicates not active. […] Reasoning that this effect depended on the ability of the compound to cross the blood brain barrier (BBB), compounds Al-12-126 and Al-14-91 have appended morpholine ring substituents to the 5 position of the pyridine ring to increase the polarity of the compounds and thereby limit BBB penetration.

[4] = tested on: primary T-ALL patient samples; assay: Apoptosis of primary T-ALL patient samples; assay type: cell-based, human
[5] = tested on: H520 lung cancer cells; assay: MTT growth assay, H520 cells; assay type: cell-based; conditions: H520, 10 μM, 72 hrs
Protocol: as §1, §2, §3

Sequence of binding of CBFβ to RUNX1 in SEM cells (Q13951 whole entry): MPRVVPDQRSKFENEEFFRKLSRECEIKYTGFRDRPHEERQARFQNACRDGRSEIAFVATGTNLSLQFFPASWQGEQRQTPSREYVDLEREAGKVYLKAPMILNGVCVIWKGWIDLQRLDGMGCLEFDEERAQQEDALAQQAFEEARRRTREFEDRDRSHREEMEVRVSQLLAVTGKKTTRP

Structure (SMILES): COc1cccnc1-c1nc2cc(OC(F)(F)F)ccc2[nH]1 [Al-10-104]
- RUNX1-bound CBFβ (co-immunoprecipitation) [1]: reduction in binding
- cell growth (MTT assay) [2]: no effect
- sedative effects [3]: significant sedative effects that were lethal at high doses
- apoptosis [4]: induced apoptosis
- cell growth (MTT assay) [5]: inhibited almost as effectively as 1 μM staurosporine
